Data reported in patent US10086085B2, “Bifunctional cytotoxic agents” (priority 2014, dated 2018).

Key:
HL60 (leukemia) = test: Cytotoxicity assay for payloads (MTS), HL-60 cells; type: cell-based; conditions: Homo sapiens, 96 h, incubated with compounds for four days, MTS absorbance 490 nm
Procedure: (§1) Cancer cell lines were obtained from ATCC (Manassas, Va.). N87 (human gastric carcinoma derived from metastatic liver site). HL60 (leukemia), A375 (melanoma) and HUVEC (human umbilical vein endothelial cells). were grown in RPMI 1640 media. All media were supplemented with 10% fetal bovine serum, 1% sodium pyruvate, and 1% L-glutamine (Invitrogen, Grand Island, N.Y.). Human umbilical vein endothelial cells (HUVEC) were obtained from Lonza (Allendale, N.J.) and maintained in EGM2 media supplemented with EGM-2 SingleQuots (Lonza # CC-4176). All cells were maintained in a humidified incubator (37° C., 5% CO2).
(§2) Cells in 100 μl medium were cultured in a 96-well plate. Cancer cell lines treated with the indicated compounds by adding 50 μl of 3× stocks in duplicate at 10 concentrations. Cells were incubated with compounds for four days, then 30 μl of CellTiter® 96 AQueous One MTS Solution (Promega Cat # G3582) was added to the cells, incubated 1.5 hr at 37° C., then absorbance measured at 490 nm on a Victor plate reader (Perkin Elmer, Waltham, Mass.). Relative cell viability was determined as a percentage of untreated control wells. IC50 values were calculated using four parameter logistic model #203 with XLfit v4.2 (IDBS, Guildford, Surry, UK).

[1] = system: N87 (human gastric carcinoma derived from metastatic liver site); test: Cytotoxicity assay for payloads (MTS), N87 cells; type: cell-based; conditions: Homo sapiens, 96 h; N87 cells, incubated with compounds for four days, MTS absorbance 490 nm; read-out: N87 IC50
Procedure: as §1, §2

Compound `Cc1c[nH]c2c1[C@@]13C[C@@H]1CN(C(=O)C14CC(C(=O)N5C[C@H]6C[C@@]67C5=CC(=O)c5[nH]cc(C)c57)(C1)C4)C3=CC2=O` [Compound 135, (3bR,4aS,3b′R,4a′S)-6,6′-(bicyclo[1.1.1]pentane-1,3-diyldicarbonyl)bis(3-methyl-4,4a,5,6-tetrahydrocyclopropa[c]pyrrolo[3,2-e]indol-8(1H)-one)] has an IC50 (HL60 (leukemia)) of 0.005 nM and an IC50 [1] of 0.019 nM.

With `O=C1C=C2N(C(=O)c3ccc(C(=O)N4C[C@H]5C[C@@]56C4=CC(=O)c4ccccc46)s3)C[C@H]3C[C@@]23c2ccccc21` [Compound 136, (1aS,9bR,1a′S,9b′R)-3,3′-(thiene-2,5-diyldicarbonyl)bis(1,1a,2,3-tetrahydro-5H-benzo[e]cyclopropa[c]indol-5-one)] the IC50 (HL60 (leukemia)) was 0.005 nM and the IC50 [1] was 0.003 nM.

In the case of `COC(=O)[C@H]1O[C@@H](Oc2cc3c(c4ccccc24)[C@H](CCl)CN3C(=O)C23CC(C(=O)N4C[C@@H](CCl)c5c4cc(O)c4ccccc54)(C2)C3)[C@H](OC(C)=O)[C@@H](OC(C)=O)[C@@H]1OC(C)=O` [Compound 141, (1S)-1-(chloromethyl)-3-[(3-{[(1S)-1-(chloromethyl)-5-hydroxy-1,2-dihydro-3H-benzo[e]indol-3-yl]carbonyl}bicyclo[1.1.1]pent-1-yl)carbonyl]-2,3-dihydro-1H-benzo[e]indol-5-yl methyl 2,3,4-tri-O-acetyl-beta-D-glucopyranosiduronate], the IC50 (HL60 (leukemia)) is reported as 0.361 nM and the IC50 [1] is reported as 12.7 nM.

`CC(=O)Oc1cc2c(c3ccccc13)[C@H](CCl)CN2C(=O)c1sc(C(=O)N2C[C@@H](CCl)c3c2cc(OC(C)=O)c2ccccc32)c2c1OCCCO2` [Compound 142, 3,4-dihydro-2H-thieno[3,4-b][1,4]dioxepine-6,8-diylbis[carbonyl(1S)-1-(chloromethyl)-1,2-dihydro-3H-benzo[e]indole-3,5-diyl] diacetate] showed an IC50 (HL60 (leukemia)) of at least 10 nM and an IC50 [1] of at least 100 nM.

`COc1c(C(=O)N2C[C@@H](CCl)c3c2cc(OC(C)=O)c2ccccc32)sc(C(=O)N2C[C@@H](CCl)c3c2cc(OC(C)=O)c2ccccc32)c1OC` [Compound 143, (3,4-dimethoxythiene-2,5-diyl)bis[carbonyl(1S)-1-(chloromethyl)-1,2-dihydro-3H-benzo[e]indole-3,5-diyl] diacetate] showed an IC50 (HL60 (leukemia)) of at least 10 nM and an IC50 [1] of at least 100 nM.

With `CC(=O)Oc1cc2c(c3ccccc13)[C@H](CCl)CN2C(=O)c1nnc(C(=O)N2C[C@@H](CCl)c3c2cc(OC(C)=O)c2ccccc32)s1` [Compound 144, 1,3,4-thiadiazole-2,5-diylbis[carbonyl(1S)-1-(chloromethyl)-1,2-dihydro-3H-benzo[e]indole-3,5-diyl] diacetate] the IC50 (HL60 (leukemia)) was 3 nM and the IC50 [1] was over 10 nM.

Work on `O=C(c1ccc(C(=O)N2C[C@@H](CCl)c3c2cc(O[C@@H]2O[C@H](CO)[C@H](O)[C@H](O)[C@H]2O)c2ccccc32)s1)N1C[C@@H](CCl)c2c1cc(O)c1ccccc21` [Compound 145, ((S)-1-(chloromethyl)-5-(((2S,3R,4S,5R,6R)-3,4,5-trihydroxy-6-(hydroxymethyl)tetrahydro-2H-pyran-2-yl)oxy)-1,2-dihydro-3H-benzo[e]indol-3-yl)(5-((S)-1-(chloromethyl)-5-hydroxy-2,3-dihydro-1H-benzo[e]indole-3-carbonyl)thiophen-2-yl)methanone] yielded an IC50 (HL60 (leukemia)) of 0.051 nM and an IC50 [1] of 0.13 nM.

`Cc1c[nH]c2c(O)cc3c(c12)[C@H](CCl)CN3C(=O)C12CC(C(=O)N3C[C@@H](CCl)c4c3cc(O)c3[nH]cc(C)c43)(C1)C2` [Compound 147, bicyclo[1.1.1]pentane-1,3-diylbis{[(1S)-1-(chloromethyl)-5-hydroxy-8-methyl-1,6-dihydropyrrolo[3,2-e]indol-3(2H)-yl]methanone}] gave an IC50 (HL60 (leukemia)) of 0.003 nM and an IC50 [1] of 0.017 nM.

`CC(=O)Oc1cc2c(c3ccccc13)[C@H](CCl)CN2C(=O)c1cc2cc(NC(=O)Nc3ccc4[nH]c(C(=O)N5C[C@@H](CCl)c6c5cc(OC(C)=O)c5ccccc65)cc4c3)ccc2[nH]1` [Compound 149, (1S)-3-[(5-{[(2-{[(1S)-5-(acetyloxy)-1-(chloromethyl)-1,2-dihydro-3H-benzo[e]indol-3-yl]carbonyl}-1H-indol-5-yl)carbamoyl]amino}-1H-indol-2-yl)carbonyl]-1-(chloromethyl)-1,2-dihydro-3H-benzo[e]indol-5-yl acetate] showed an IC50 (HL60 (leukemia)) of 0.007 nM and an IC50 [1] of 0.132 nM.

`CC(=O)Oc1cc2c(c3ccccc13)[C@H](CCl)CN2C(=O)C12CC(C(=O)N3C[C@@H](CCl)c4c3cc(OC(C)=O)c3ccccc43)(C1)C2` [Compound 152, bicyclo[1.1.1]pentane-1,3-diylbis[carbonyl(1S)-1-(chloromethyl)-1,2-dihydro-3H-benzo[e]indole-3,5-diyl] diacetate] showed an IC50 (HL60 (leukemia)) of 0.008 nM and an IC50 [1] of 0.278 nM.

In the case of `Cc1c[nH]c2c(O)cc3c(c12)[C@H](CCl)CN3C(=O)C12CC(C(=O)N3C[C@@H](CCl)c4c3cc(O)c3ccccc43)(C1)C2` [Compound 154, [(1S)-1-(chloromethyl)-5-hydroxy-1,2-dihydro-3H-benzo[e]indol-3-yl](3-{[(1S)-1-(chloromethyl)-5-hydroxy-8-methyl-1,6-dihydropyrrolo[3,2-e]indol-3(2H)-yl]carbonyl}bicyclo[1.1.1]pent-1-yl)methanone], the IC50 (HL60 (leukemia)) is reported as 0.003 nM and the IC50 [1] is reported as 0.026 nM.

Compound `CC(=O)Oc1cc2c(c3ccccc13)[C@H](CCl)CN2C(=O)CC1(CC(=O)N2C[C@@H](CCl)c3c2cc(OC(C)=O)c2ccccc32)CCC1` [Compound 156, cyclobutane-1,1-diylbis[(1-oxoethane-2,1-diyl)(1S)-1-(chloromethyl)-1,2-dihydro-3H-benzo[e]indole-3,5-diyl] diacetate] has an IC50 (HL60 (leukemia)) of 61.1 nM and an IC50 [1] of at least 10 nM.

Compound `CC(=O)Oc1cc2c(c3ccccc13)[C@H](CCl)CN2C(=O)CC1(CC(=O)N2C[C@@H](CCl)c3c2cc(OC(C)=O)c2ccccc32)CCCC1` [Compound 157, cyclopentane-1,1-diylbis[(1-oxoethane-2,1-diyl)(1S)-1-(chloromethyl)-1,2-dihydro-3H-benzo[e]indole-3,5-diyl] diacetate] has an IC50 (HL60 (leukemia)) of 77.4 nM and an IC50 [1] of at least 10 nM.

With `CC(=O)Oc1cc2c(c3ccccc13)[C@H](CCl)CN2C(=O)CC12CC(CC(=O)N3C[C@@H](CCl)c4c3cc(OC(C)=O)c3ccccc43)(C1)C2` [Compound 158, bicyclo[1.1.1]pentane-1,3-diylbis[(1-oxoethane-2,1-diyl)(1S)-1-(chloromethyl)-1,2-dihydro-3H-benzo[e]indole-3,5-diyl] diacetate] the IC50 (HL60 (leukemia)) was 4.91 nM and the IC50 [1] was 14.3 nM.

For `CC(=O)Oc1cc2c(c3ccccc13)[C@H](CCl)CN2C(=O)C12CCC(C(=O)N3C[C@@H](CCl)c4c3cc(OC(C)=O)c3ccccc43)(CC1)CC2` [Compound 159, bicyclo[2.2.2]octane-1,4-diylbis[carbonyl(1S)-1-(chloromethyl)-1,2-dihydro-3H-benzo[e]indole-3,5-diyl] diacetate], the IC50 (HL60 (leukemia)) was 0.045 nM and the IC50 [1] was 2.39 nM.

`Nc1cc2c(c3ccccc13)[C@H](CCl)CN2C(=O)C12CC(C(=O)N3C[C@@H](CCl)c4c3cc(OP(=O)(O)O)c3ccccc43)(C1)C2` [Compound 161, (1S)-3-[(3-{[(1S)-5-amino-1-(chloromethyl)-1,2-dihydro-3H-benzo[e]indol-3-yl]carbonyl}bicyclo[1.1.1]pent-1-yl)carbonyl]-1-(chloromethyl)-2,3-dihydro-1H-benzo[e]indol-5-yl dihydrogen phosphate] was tested, and the IC50 (HL60 (leukemia)) was 27.2 nM and the IC50 [1] was at least 10 nM.

`CC(=O)Oc1cc2c(c3ccccc13)[C@H](CCl)CN2C(=O)C12CC(CC(=O)N3C[C@@H](CCl)c4c3cc(O)c3ccccc43)(C1)C2` [Compound 162, (1S)-1-(chloromethyl)-3-[(3-{2-[(1S)-1-(chloromethyl)-5-hydroxy-1,2-dihydro-3H-benzo[e]indol-3-yl]-2-oxoethyl}bicyclo[1.1.1]pent-1-yl)carbonyl]-2,3-dihydro-1H-benzo[e]indol-5-yl acetate] showed an IC50 (HL60 (leukemia)) of 0.02 nM and an IC50 [1] of 0.749 nM.

For `O=C(N1C[C@@H](CCl)c2c1cc(O)c1ccccc21)C12CC(C(=O)N3C[C@@H](CCl)c4c3cc(OP(=O)(O)O)c3ccccc43)(C1)C2` [Compound 163, (1S)-1-(chloromethyl)-3-[(3-{[(1S)-1-(chloromethyl)-5-hydroxy-1,2-dihydro-3H-benzo[e]indol-3-yl]carbonyl}bicyclo[1.1.1]pent-1-yl)carbonyl]-2,3-dihydro-1H-benzo[e]indol-5-yl dihydrogen phosphate], the IC50 (HL60 (leukemia)) was 0.179 nM and the IC50 [1] was 6.89 nM.

`Cc1c[nH]c2c(O)cc3c(c12)[C@H](CCl)CN3C(=O)CNCC(=O)N1C[C@@H](CCl)c2c1cc(O)c1[nH]cc(C)c21` [Compound 165, 2,2′-iminobis{1-[(1S)-1-(chloromethyl)-5-hydroxy-8-methyl-1,6-dihydropyrrolo[3,2-e]indol-3(2H)-yl]ethanone}] was tested, and the IC50 (HL60 (leukemia)) was 0.107 nM and the IC50 [1] was 8.26 nM.

`NC(CC(=O)N1C[C@H]2C[C@@]23C1=CC(=O)c1ccccc13)CC(=O)N1C[C@H]2C[C@@]23C1=CC(=O)c1ccccc13` [Compound 166, 3-amino-1,5-bis[(1aS,9bR)-5-oxo-1a,2-dihydro-1H-benzo[e]cyclopropa[c]indol-3(5H)-yl]pentane-1,5-dione] showed an IC50 (HL60 (leukemia)) of 0.659 nM and an IC50 [1] of 5.69 nM.
